The values that follow come from patent publication US20170342064A1, “COMPOUNDS FOR THE TREATMENT OF CANCER” (Bayer Pharma Aktiengesellschaft, priority 2014, published 2017).

In data set [1] the test system is HeLa human cervical tumor cells. Kind of data set: Proliferation assay (crystal violet), HeLa cells. It counts as cell-based. Particulars: 96 h, 4 days incubation, crystal violet staining, read-out: Inhibition of cell proliferation, cell Line: HeLa IC50. The method, then:
Cultivated tumor cells (MCF7, hormone dependent human mammary carcinoma cells, ATCC HTB22; NCI-H460, human non-small cell lung carcinoma cells, ATCC HTB-177; DU 145, hormone-independent human prostate carcinoma cells, ATCC HTB-81; HeLa-MaTu, human cervical carcinoma cells, EPO-GmbH, Berlin; HeLa-MaTu-ADR, multidrug-resistant human cervical carcinoma cells, EPO-GmbH, Berlin; HeLa human cervical tumor cells, ATCC CCL-2; B16F10 mouse melanoma cells, ATCC CRL-6475) were plated at a density of 5000 cells/well (MCF7, DU145, HeLa-MaTu-ADR), 3000 cells/well (NCI-H460, HeLa-MaTu, HeLa), or 1000 cells/well (B16F10) in a 96-well multititer plate in 200 μl of their respective growth medium supplemented 10% fetal calf serum. After 24 hours, the cells of one plate (zero-point plate) were stained with crystal violet (see below), while the medium of the other plates was replaced by fresh culture medium (200 μl), to which the test substances were added in various concentrations (0 μM, as well as in the range of 0.01-30 μM; the final concentration of the solvent dimethyl sulfoxide was 0.5%). The cells were incubated for 4 days in the presence of test substances. Cell proliferation was determined by staining the cells with crystal violet: the cells were fixed by adding 20 μl/measuring point of an 11% glutaric aldehyde solution for 15 minutes at room temperature. After three washing cycles of the fixed cells with water, the plates were dried at room temperature. The cells were stained by adding 100 μl/measuring point of a 0.1% crystal violet solution (pH 3.0). After three washing cycles of the stained cells with water, the plates were dried at room temperature. The dye was dissolved by adding 100 μl/measuring point of a 10% acetic acid solution. The extinction was determined by photometry at a wavelength of 595 nm. The change of cell number, in percent, was calculated by normalization of the measured values to the extinction values of the zero-point plate (=0%) and the extinction of the untreated (0 μm) cells (=100%). The IC50 values were determined by means of a 4 parameter fit.
The reference examples described above are characterized by the following IC50 values, determined in a HeLa cell proliferation assay (as described above): […]

The nature of data set [2]: In vitro stability in human plasma (HPLC detection). It counts as in vitro ADME. The conditions noted are these: 37° C., HPLC peak area ratio. As for the experimental part: (§1) 1 mg of test compound is dissolved in 1.25 ml dimethylsulfoxide. Then 1.25 ml water are added. 0.5 ml of this sample solution are mixed with 0.5 ml heparinized and 37° C. warm plasma (wistar rat plasma or human plasma). A first sample (10 μl) is immediately taken for HPLC analysis. In the period up to 4 h after the start of incubation further 10 μl aliquots are taken after 30, 60, 90, 120 and 240 minutes and the amount of the test compound is determined. Agilent 1100 with DAD (G1315A), binary pump (G1312A), autosampler (G1329A), column oven (G1316A), thermostat (G1330B); column: Kromasil 100 C18, 250 mm×4 mm, 5 μm; column temperature: 45° C.; eluent A: water+5 ml of perchloric acid/litre, eluent B: acetonitrile. 0 min 98% A, 2% B→0-3.0 min 85% A, 15% B→3.0-8.0 min 55% A, 45% B→8.0-16.0 min 55% A, 45% B→16.0-20.0 min 10% A, 90% B→20.0-21.0 10% A, 90% B→21.0-24.0 min 98% A, 2% B→24.0-25.0 min 98% A, 2% B; flow rate: 1.5 ml/min; UV detection: 222 nm.

Data set [3] in a line: In vitro stability in rat plasma (HPLC detection). It counts as in vitro ADME, wistar rat. The conditions noted are these: 37° C., HPLC peak area ratio. As for the experimental part:
as §1

The nature of data set [4]: Stability in buffer at pH 7.4. It counts as physicochemical. The conditions noted are these: buffer pH 7.4, 37° C., HPLC peak area ratio. The method, then:
0.3 mg of the test compound are solved in 0.1 ml dimethylsulfoxide and 0.4 ml acetonitrile. For complete dissolution the HPLC vial with the sample solution is sonified for about 20 seconds. Then 1.0 ml of the buffer solution is added, and the sample is again treated in the ultrasonic bath. 90 g of sodium chloride, 13.61 g of potassium dihydrogen phosphate and 83.35 g of 1 M sodium hydroxide solution are made up to 1 litre with Millipore water and then diluted 1:10. 10 μl portions of the sample solution are analysed by HPLC to determine the amount of the test compound over a period of 24 hours at 37° C. The peak areas in percentage are used for quantification. Agilent 1100 with DAD (G1315B), binary pump (G1312A), autosampler (G1329A), column oven (G1316A), thermostat (G1330B); column: Kromasil 100 C18, 250 mm×4 mm, 5 μm; column temperature: 37° C.; eluent A: water+5 ml of perchloric acid/litre, eluent B: acetonitrile. 0 min 98% A, 2% B→0-3.0 min 85% A, 15% B→3.0-8.0 min 50% A, 50% B→8.0-16.0 min 50% A, 50% B→16.0-20.0 min 10% A, 90% B→20.0-21.0 10% A, 90% B→21.0-24.0 min 98% A, 2% B→24.0-25.0 min 98% A, 2% B; flow rate: 1.5 ml/min; UV detection: 210 nm. The ratio of the peak areas (F) at different time points in relation to the peak areas at the starting time are shown in Table 1 for representative examples: […]

Consider `COc1cc(S(C)(=O)=O)ccc1Nc1nc2cc(-c3ccc(NC(=O)[C@H](C)c4ccc(F)cc4)cc3)ccn2n1` [01.01, (2R)-2-(4-fluorophenyl)-N-[4-(2-{[2-methoxy-4-(methylsulfonyl)phenyl]amino}[1,2,4]triazolo[1,5-a]pyridin-7-yl)phenyl]propanamide], for which the IC50 in data set [1] was at most 0.2 µM. For `C[C@@H](C(=O)Nc1ccc(-c2ccn3nc(Nc4ccc(C(=O)N5CC(F)C5)cc4OCC(F)(F)F)nc3c2)cc1)c1ccc(F)cc1` [Reference Example 01.03, (2R)—N-{4-[2-({4-[(3-fluoroazetidin-1-yl)carbonyl]-2-(2,2,2-trifluoroethoxy)phenyl}amino)[1,2,4]triazolo[1,5-a]pyridin-7-yl]phenyl}-2-(4-fluorophenyl)propanamide], in data set [1], the IC50 was at most 0.1 µM. Consider `C[C@@H](C(=O)Nc1ccc(-c2ccn3nc(N(C(=O)OCOC(=O)[C@@H](N)C(C)(C)C)c4ccc(C(=O)N5CC(F)C5)cc4OCC(F)(F)F)nc3c2)cc1)c1ccc(F)cc1.Cl` [Example 1.1, [({4-[(3-fluoroazetidin-1-yl)carbonyl]-2-(2,2,2-trifluoroethoxy)phenyl}[7-(4-{[(2R)-2-(4-fluorophenyl)propanoyl]amino}phenyl)[1,2,4]triazolo[1,5-a]pyridin-2-yl]carbamoyl)oxy]methyl 3-methyl-L-valinate hydrochloride], for which the “% Test Compound after 4 h [F(t = 24 h) × 100/F(t = 0 h)]” value in data set [2] and in data set [3] was 0.0% throughout. Besides, in data set [4], the “% Test Compound after 24 h [F(t = 24 h) × 100/F(t = 0 h)]” value is recorded as 0.0%.

For the compound `COc1cc(C(=O)N2CCC2)ccc1Nc1nc2cc(-c3ccc(NC(=O)[C@H](C)c4ccc(F)cc4)cc3)ccn2n1` [Reference Example 01.06, (2R)—N-[4-(2-{[4-(azetidin-1-ylcarbonyl)-2-methoxyphenyl]amino}[1,2,4]triazolo[1,5-a]pyridin-7-yl)phenyl]-2-(4-fluorophenyl)propanamide], the IC50 in data set [1] was at most 0.1 µM. On to `C[C@@H](C(=O)Nc1ccc(-c2ccn3nc(Nc4ccc(S(C)(=O)=O)cc4OCC(F)(F)F)nc3c2)cc1)c1ccc(F)cc1` [Reference Example 01.05, (2R)-2-(4-fluorophenyl)-N-[4-(2-{[4-(methylsulfonyl)-2-(2,2,2-trifluoroethoxy)phenyl]amino}[1,2,4]triazolo[1,5-a]pyridin-7-yl)phenyl]propanamide], for which the IC50 in data set [1] was at most 0.1 µM. Still for that read-out and setting: the figure for `COc1cc(C(=O)N2CC(F)C2)ccc1Nc1nc2cc(-c3ccc(NC(=O)[C@H](C)c4ccc(F)cc4)cc3)ccn2n1` [Reference Example 01.02, (2R)—N-{4-[2-({4-[(3-fluoroazetidin-1-yl)carbonyl]-2-methoxyphenyl}amino)[1,2,4]triazolo[1,5-a]pyridin-7-yl]phenyl}-2-(4-fluorophenyl)propanamide] is at most 0.1 µM.
